Consider one compound from patent US10351509B2, “Fenfluramine compositions and methods of preparing the same” (priority 2015, dated 2019).

Molecules are shown by their SMILES. Read-outs that look alike come from different tables or passages of the source. Marks after values point to notes of the source that are not given here.

A short description of data set [1]: Solid stability by HPLC. It is filed as physicochemical. Particulars: 8 weeks at 40° C., 60° C. and 80° C.; 7 days at 150° C.; all conditions.
The nature of data set [2]: Holding at approximately 170° C., analysis by XRPD, DSC and 1H NMR. In kind it is physicochemical. Particulars: held at approximately 170° C. for several hours. The procedure: Holding Fenfluramine HCl at approximately 170° C. for several hours causes a melt and evaporation event to take place with recombination and cooling to provide a white solid.
The conditions of data set [3]: for Parent remaining: 168 h.
Data set [4] can be described thus: Aqueous solubility.
The nature of data set [5]: Solubility in organic solvents. Particulars: 25 °C, organic solvent or mixture.
The nature of data set [6]: Hygroscopicity by Dynamic Vapor Sorption (DVS). It is filed as physicochemical.
The nature of data set [7]: Solution pH (water). It is filed as physicochemical.
The nature of data set [8]: Stability analysis of the salt (Form 1) under temperature/humidity and photostability conditions. Particulars: one week at 40° C./0% RH, three weeks at 40° C./75% RH, and photostability conditions. In kind it is physicochemical. An excerpt:
Fenfluramine HCl is developed as a single polymorph Form 1. A polymorphism and pre-formulation study has been conducted. Under a wide range of solvents and conditions crystalline material is produced of the same polymorph Form 1 based on a well-defined XRPD pattern and a consistent reproducible endotherm by DSC analysis. A summary of the chemophysical properties of Fenfluramine HCl from this study is provided below. Tabulated data includes example diffractograms, DSCs, and micrographs.

The nature of data set [9]: pKa (water) of drug substance.

The solubility is the dissolved amount per volume that the medium holds. As a reminder, the pKa is the negative logarithm of the acid dissociation constant. For `CCNC(C)Cc1cccc(C(F)(F)F)c1.Cl` (racemic) [Fenfluramine HCl, N-ethyl-α-methyl-3-(trifluoromethyl)-benzeneethanamine hydrochloride (1:1)], the “Solid Stability: new impurities >0.1% by HPLC” value in [1] is 150 °C All conditions, no new impurities >0.1% by. Also, the “Change after melt and evaporation event (XRPD, DSC, 1H NMR)” value in [2] was “no change in chemical or physical form, purity, or dissociation”. In data set [3] (24 h), the “Parent remaining after degradation” value is on record as 94.42%. In addition, the results for the Parent remaining in data set [3] and in [3] (buffer) were 99.90 parent area % and 99.73 parent area %, respectively. The solubility is 23 mg/mL in data set [4] (0.9% NaCl in water, 25 °C, saline or isotonic); 25.3 mg/mL in data set [4] (pH 1.73 buffer, 25 °C, pH 1.73, simulated gastric fluid); 53.7 mg/mL in [4] (pH 1.73 buffer, 37 °C, pH 1.73, simulated gastric fluid); 29.5 mg/mL in data set [4] (pH 3.43 buffer, 25 °C, pH 3.43, aqueous buffer); 62 mg/mL in data set [4] (pH 3.43 buffer, 37 °C, pH 3.43, aqueous buffer); 37.4 mg/mL in [4] (pH 6.41 buffer, 25 °C, pH 6.41, aqueous buffer). Further, the solubility in data set [4] (pH 6.41 buffer, 37 °C, pH 6.41, aqueous buffer) is 95.6 mg/mL; in data set [4] (water, 25 °C, pH 6.69, water), 54.1 mg/mL; in [4] (water, 37 °C, pH 6.69, water) it was 71.2 mg/mL; in data set [5] (dichloromethane) it was 30 to 35 mg/mL; in data set [5] (ethanol), 150 mg/mL; in data set [5] (ethyl acetate, tetrahydrofuran, toluene, acetonitrile), 1 to 5 mg/mL. Besides, the “Hygroscopicity (Dynamic Vapor Sorption (DVS))” value in data set [6] (@30% RH) is on record as “@30% RH: ~0.05%”; in data set [6] (@60% RH) it was “@60% RH: ~0.07%”; in data set [6] (@90% RH), “@90% RH: ~0.20%^a)”. In addition, the “Solution pH (water)” value in data set [7] is 6.69. In addition, the “Stability of the salt: form and new impurities at 0.1% threshold” value in [8] is reported as “input Form 1 has been maintained with no new impurities observed at 0.1% threshold”. The compound also came in with a pKa in [9] of 10.2 to 10.4.
